What all share (test): UAG suppression of SAMP1 reporter in H. volcanii, immunoblot and LC-MS/MS of the product
Common to all, as to type: cell-based
Background: In western blotting, separated proteins are transferred to a membrane and probed.

Test [1] addresses T1, HMET1 PylRS1 (Candidatus Methanohalarchaeum thermophilum, UniProt A0A1Q6DXK2, N163S/V165I).
T1 construct: gene BTN85_1602; deltaPylSn type (catalytic domain only), N-terminal 6xHis tag, expressed in Haloferax volcanii
Conditions: 1 mM 3-I-Phe in medium, tRNAPyl1, 42 °C; printed as PylRS1-SI.

A further test addresses T2, HMET1 PylRS2 (Candidatus Methanohalarchaeum thermophilum, UniProt A0A1Q6DTA0).
T2 construct: gene BTN85_0018; deltaPylSn type (catalytic domain only), N-terminal 6xHis tag, expressed in Haloferax volcanii
T2 sequence (A0A1Q6DTA0 1-273): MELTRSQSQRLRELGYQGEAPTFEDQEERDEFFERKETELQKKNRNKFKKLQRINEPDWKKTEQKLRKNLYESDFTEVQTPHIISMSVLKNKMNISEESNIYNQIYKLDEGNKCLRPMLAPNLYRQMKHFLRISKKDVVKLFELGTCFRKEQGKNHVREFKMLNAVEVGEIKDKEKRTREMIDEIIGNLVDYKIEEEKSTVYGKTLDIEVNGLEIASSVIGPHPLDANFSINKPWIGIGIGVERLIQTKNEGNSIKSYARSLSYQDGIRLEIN
The note with it: 1 mM BocK in medium, cognate tRNAPyl2, 42 °C.

For test [2], the target named is T3, HMET1 PylRS1 (Candidatus Methanohalarchaeum thermophilum, UniProt A0A1Q6DXK2).
T3 construct: gene BTN85_1602; deltaPylSn type (catalytic domain only), N-terminal 6xHis tag, expressed in Haloferax volcanii
T3 sequence (A0A1Q6DXK2 1-273): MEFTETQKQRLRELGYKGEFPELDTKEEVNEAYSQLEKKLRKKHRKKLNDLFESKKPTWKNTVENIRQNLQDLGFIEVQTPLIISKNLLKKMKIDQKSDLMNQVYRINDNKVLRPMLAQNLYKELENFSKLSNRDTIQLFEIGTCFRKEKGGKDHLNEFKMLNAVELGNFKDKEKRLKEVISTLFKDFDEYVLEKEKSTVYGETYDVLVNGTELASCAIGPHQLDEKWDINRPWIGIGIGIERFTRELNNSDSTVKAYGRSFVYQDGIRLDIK
The note with it: 1 mM BocK in medium, cognate tRNAPyl1, 42 °C.

Each structure is given as a SMILES string.

T1 sequence (A0A1Q6DXK2 entry or part of it N163S/V165I): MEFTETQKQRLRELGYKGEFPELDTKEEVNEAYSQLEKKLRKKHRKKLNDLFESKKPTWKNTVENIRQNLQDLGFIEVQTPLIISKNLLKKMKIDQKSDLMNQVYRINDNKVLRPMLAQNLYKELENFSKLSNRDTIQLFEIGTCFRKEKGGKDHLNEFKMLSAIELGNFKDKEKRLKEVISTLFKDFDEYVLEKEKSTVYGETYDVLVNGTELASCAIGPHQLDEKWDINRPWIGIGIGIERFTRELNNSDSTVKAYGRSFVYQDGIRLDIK

As for `N[C@@H](Cc1cccc(I)c1)C(=O)O` [3-I-Phe], the “UAG suppression of SAMP1 reporter in H. volcanii, immunoblot and LC-MS/MS of the” value on HMET1 PylRS1 [1] is “The PylRS1-SI/tRNA^Pyl1 pair exhibited strong amber suppression in a 3-I-Phe-dependent manner”.

Regarding `CC(C)(C)OC(=O)NCCCC[C@H](N)C(=O)O` [BocK], the “UAG suppression of SAMP1 reporter in H. volcanii, immunoblot and LC-MS/MS of the” value is listed as “native HMET1 PylRS/tRNA^Pyl pairs incorporate BocK into proteins via genetic code expansion in H. volcanii” at HMET1 PylRS2 and “both HMET1 PylRS/tRNA^Pyl pairs facilitated efficient amber suppression” at HMET1 PylRS1 [2].

(Values after PMC9071458, “The tRNA discriminator base defines the mutual orthogonality of two distinct pyrrolysyl-tRNA synthetase/tRNA^Pyl pairs in the same organism” (Nucleic Acids Research, 2022).)
